Measured values reported in patent publication US9730937B2, “RAF kinase modulator compounds and methods of use thereof” (AMBIT BIOSCIENCES CORPORATION, priority 2008, dated 2017).
Where a name gives a salt, the structure may show the parent alone. Read-outs that look alike come from different tables or passages of the source.

Tests used:
[1] = biological target: wild type BRAF kinase (Homo sapiens (Human), UniProt P15056); details: read-out: BRAF WT Kd, class symbols
[2] = test system: panel of 290 distinct kinases (321 in the larger panel), excluding mutant variants; details: kinase selectivity score, class symbols
[3] = biological target: mutant BRAF kinase (Homo sapiens (Human), UniProt P15056, V600E); details: read-out: BRAF V600E Kd, class symbols
[4] = biological target: RAF kinases (Homo sapiens (Human), UniProt P04049); details: read-out: RAF1 Kd, class symbols
[5] = value marked * (larger kinase panel)

Chain of RAF kinases (P04049 whole entry): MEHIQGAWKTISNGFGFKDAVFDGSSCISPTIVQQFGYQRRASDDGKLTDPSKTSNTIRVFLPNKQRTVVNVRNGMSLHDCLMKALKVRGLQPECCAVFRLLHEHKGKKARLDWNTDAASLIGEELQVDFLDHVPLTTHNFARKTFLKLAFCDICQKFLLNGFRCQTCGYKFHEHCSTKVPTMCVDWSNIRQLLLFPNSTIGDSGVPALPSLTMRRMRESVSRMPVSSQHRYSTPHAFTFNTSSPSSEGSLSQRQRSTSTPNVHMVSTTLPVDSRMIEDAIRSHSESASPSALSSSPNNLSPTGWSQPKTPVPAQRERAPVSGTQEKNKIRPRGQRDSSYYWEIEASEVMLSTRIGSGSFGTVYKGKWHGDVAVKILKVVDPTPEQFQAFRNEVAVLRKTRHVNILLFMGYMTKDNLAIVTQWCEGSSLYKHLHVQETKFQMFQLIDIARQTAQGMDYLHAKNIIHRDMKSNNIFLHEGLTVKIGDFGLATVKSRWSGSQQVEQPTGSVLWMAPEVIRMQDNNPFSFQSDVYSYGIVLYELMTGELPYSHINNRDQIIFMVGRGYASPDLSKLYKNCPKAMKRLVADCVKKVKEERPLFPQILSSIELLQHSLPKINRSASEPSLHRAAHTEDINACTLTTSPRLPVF
Chain of wild type BRAF kinase (P15056 whole entry): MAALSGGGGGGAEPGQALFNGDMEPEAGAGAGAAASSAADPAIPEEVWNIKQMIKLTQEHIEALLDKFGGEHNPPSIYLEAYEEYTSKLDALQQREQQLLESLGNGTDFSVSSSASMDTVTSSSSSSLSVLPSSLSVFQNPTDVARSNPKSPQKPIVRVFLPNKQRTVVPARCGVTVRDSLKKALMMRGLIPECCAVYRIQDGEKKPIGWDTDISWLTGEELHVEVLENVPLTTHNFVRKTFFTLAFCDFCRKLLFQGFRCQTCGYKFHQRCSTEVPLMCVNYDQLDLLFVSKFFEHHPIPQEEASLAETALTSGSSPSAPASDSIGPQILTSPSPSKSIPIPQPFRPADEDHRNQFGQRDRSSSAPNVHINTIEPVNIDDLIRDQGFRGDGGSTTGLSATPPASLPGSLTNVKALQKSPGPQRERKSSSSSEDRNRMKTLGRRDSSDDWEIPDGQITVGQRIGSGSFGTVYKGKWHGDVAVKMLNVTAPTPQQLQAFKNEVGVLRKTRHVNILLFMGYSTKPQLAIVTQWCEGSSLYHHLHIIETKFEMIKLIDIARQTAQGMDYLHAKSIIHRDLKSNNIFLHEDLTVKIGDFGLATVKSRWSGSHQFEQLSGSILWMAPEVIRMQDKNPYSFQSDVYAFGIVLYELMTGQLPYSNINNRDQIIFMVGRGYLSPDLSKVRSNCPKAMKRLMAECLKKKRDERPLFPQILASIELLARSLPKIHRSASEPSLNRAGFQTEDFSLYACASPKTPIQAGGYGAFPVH
Chain of mutant BRAF kinase (P15056 whole entry V600E): as the sequence (P15056 whole entry) above, with V600E counted along it

Row | Structure (SMILES) | Kd [1] [nM] | S35 ([2]; 290 distinct kinases) | S35 [2, 5] | Kd [3] [nM] | Kd [4] [nM]
1 | COc1cc2ncnc(Oc3cccc(NC(=O)Nc4cc(C5CCOCC5)no4)c3)c2cc1OC [Ex 123, 1-(3-(6,7-dimethoxyquinazolin-4-yloxy)phenyl)-3-(3-(tetrahydro-2H-pyran-4-yl)isoxazol-5-yl)urea] | > 1000 | B (0.10 < B ≦ 0.20) |  |  | 
2 | COCCOc1cc(NC(=O)Nc2cccc(Oc3ncnc4cc(OC)c(OC)cc34)c2)cc(C(F)(F)F)c1 [Ex 129, 1-(3-(6,7-dimethoxyquinazolin-4-yloxy)phenyl)-3-(3-(2-methoxyethoxy)-5-(trifluoromethyl)phenyl)urea] | > 1000 | B (0.10 < B ≦ 0.20) |  |  | 
3 | COc1cc2ncnc(Sc3cccc(NC(=O)Nc4cc(CN5CCOCC5)cc(C(F)(F)F)c4)c3)c2cc1OC [Ex 189, 1-(3-(6,7-dimethoxyquinazolin-4-ylthio)phenyl)-3-(3-(morpholinomethyl)-5-(trifluoromethyl)phenyl)urea] | > 1000 |  | C* (0.20 < C ≦ 0.40) |  | 
4 | COc1cc2ncnc(Sc3cccc(NC(=O)Nc4cc(C(C)(C)C)on4)c3)c2cc1OCCCN1CCS(=O)(=O)CC1 [Ex 62, 1-(5-tert-butyl-isoxazol-3-yl)-3-(3-{6-[3-(1,1-dioxo-thiomorpholin-4-yl)-propoxy]-7-methoxy-quinazolin-4-ylsulfanyl}-phenyl)-urea] |  | C (0.20 < C ≦ 0.40) |  | < 250 | < 250
5 | COc1cc(OC2CCOCC2)c2c(Oc3cccc(NC(=O)Nc4cc(C(C)(C)C)on4)c3)ncnc2c1 [Ex 94, 1-(5-tert-butylisoxazol-3-yl)-3-{3-[7-methoxy-5-(tetrahydro-2H-pyran-4-yloxy)quinazolin-4-yloxy]phenyl}urea] | > 1000 | C (0.20 < C ≦ 0.40) |  |  | 
6 | COc1ccc2ncnc(Sc3cccc(NC(=O)Nc4cc(C(C)(C)C)on4)c3)c2c1 [Ex 49, 1-(5-tert-butylisoxazol-3-yl)-3-(3-(6-methoxyquinazolin-4-ylthio)phenyl)urea] | > 1000 | C (0.20 < C ≦ 0.40) |  |  | 
7 | COc1cc2ncnc(Oc3cccc(NC(=O)Nc4cc(C(C)(CF)CF)on4)c3)c2cc1OC [Ex 162, 1-[5-(1,3-difluoro-2-methylpropan-2-yl)isoxazol-3-yl]-3-[3-(6,7-dimethoxyquinazolin-4-yloxy)phenyl]urea] |  |  | C* (0.20 < C ≦ 0.40) | < 250 | < 250
8 | COc1cc2ncnc(Sc3cccc(NC(=O)Nc4ccc(C(F)(F)F)c(F)c4)c3)c2cc1OC [Ex 188, 1-(3-(6,7-dimethoxyquinazolin-4-ylthio)phenyl)-3-(3-fluoro-4-(trifluoromethyl)phenyl)urea] | > 1000 |  | B* (0.10 < B ≦ 0.20) |  | 
9 | COc1cc2ncnc(Oc3cccc(NC(=O)Nc4cc(C(C)(C)CO)on4)c3)c2cc1OC [Ex 131, 1-(3-(6,7-dimethoxyquinazolin-4-yloxy)phenyl)-3-(5-(1-hydroxy-2-methylpropan-2-yl)isoxazol-3-yl)urea] |  | C (0.20 < C ≦ 0.40) |  | < 250 | < 250
10 | COCCOc1cc(NC(=O)Nc2cccc(Oc3ncnc4cc(OC)c(OC)cc34)c2)ccc1C(F)(F)F [Ex 147, 1-(3-(6,7-dimethoxyquinazolin-4-yloxy)phenyl)-3-(3-(2-methoxyethoxy)-4-(trifluoromethyl)phenyl)urea] | > 1000 |  | B* (0.10 < B ≦ 0.20) |  | 
11 | COc1cc2ncnc(Sc3cccc(NC(=O)Nc4cc(C(C)(C)C)on4)c3)c2cc1OCCCN1CCOCC1 [Ex 63, 1-(5-tert-butylisoxazol-3-yl)-3-(3-(7-methoxy-6-(3-morpholinopropoxy)quinazolin-4-ylthio)phenyl)urea] |  | C (0.20 < C ≦ 0.40) |  | < 250 | < 250
12 | COc1cc2ncnc(Oc3cccc(NC(=O)Nc4ccc(OC(F)(F)F)cc4)c3)c2cc1OC [Ex 177, 1-(3-(6,7-dimethoxyquinazolin-4-yloxy)phenyl)-3-(4-(trifluoromethoxy)phenyl)urea] |  | C (0.20 < C ≦ 0.40) |  | < 250 | < 250
13 | COCCOc1ccc2ncnc(Sc3cccc(NC(=O)Nc4cc(C(C)(C)C)on4)c3)c2c1 [Ex 87, 1-(5-tert-butylisoxazol-3-yl)-3-(3-(6-(2-methoxyethoxy)quinazolin-4-ylthio)phenyl)urea] | > 1000 | C (0.20 < C ≦ 0.40) |  |  | 
14 | COc1cc2ncnc(Oc3cccc(NC(=O)Nc4cc(C(C)(C)C)on4)c3)c2cc1O [Ex 107, 1-(5-tert-butylisoxazol-3-yl)-3-(3-(6-hydroxy-7-methoxyquinazolin-4-yloxy)phenyl)urea] |  | C (0.20 < C ≦ 0.40) |  | < 250 | < 250
15 | COc1cc2ncnc(Sc3cccc(NC(=O)Nc4cc(C(C)(CF)CF)on4)c3)c2cc1OC [Ex 191, 1-[5-(1,3-difluoro-2-methylpropan-2-yl)isoxazol-3-yl]-3-[3-(6,7-dimethoxyquinazolin-4-ylthio)phenyl]urea] |  |  | C* (0.20 < C ≦ 0.40) | < 250 | < 250
16 | COc1cc2ncnc(Oc3cccc(NC(=O)Nc4cc(C(C)(C)C)on4)c3)c2cc1OC[C@@H](O)CN1CCN(C)CC1 [Ex 111, (S)-1-(5-tert-butylisoxazol-3-yl)-3-(3-(6-(2-hydroxy-3-(4methylpiperazin-1-yl)propoxy)-7-methoxyquinazolin-4-yloxy)phenyl)urea] |  | D (D > 0.40) |  | < 250 | < 250
17 | COc1cc2ncnc(Sc3cccc(NC(=O)Nc4cc(C(C)(C)F)no4)c3)c2cc1OC [Ex 187, 1-(3-(6,7-dimethoxyquinazolin-4-ylthio)phenyl)-3-(3-(2-fluoropropan-2-yl)isoxazol-5-yl)urea] |  |  | C* (0.20 < C ≦ 0.40) | < 250 | < 250
18 | COc1cc2ncnc(Sc3cccc(NC(=O)Nc4cc(C(C)(C)C)on4)c3)c2cc1OCCCN1CCN(CCO)CC1 [Ex 61, 1-(5-tert-butylisoxazol-3-yl)-3-(3-(6-(3-(4-(2-hydroxyethyl)piperazin-1-yl)propoxy)-7-methoxyquinazolin-4-ylthio)phenyl)urea] |  | D (D > 0.40) |  | < 250 | < 250
19 | COc1cc2ncnc(Oc3cccc(NC(=O)Nc4cc(C(C)(C)C)on4)c3)c2cc1OCCN1CCCCC1 [Ex 16, 1-(5-tert-butylisoxazol-3-yl)-3-(3-(7-methoxy-6-(2-(piperidin-1-yl)ethoxy)quinazolin-4-yloxy)phenyl)urea] |  | C (0.20 < C ≦ 0.40) |  | < 250 | > 1000
20 | COc1cc2ncnc(Oc3cccc(NC(=O)Nc4ccc(C(F)(F)F)cc4)c3)c2cc1OC [Ex 183, 1-(3-(6,7-dimethoxyquinazolin-4-yloxy)phenyl)-3-(4-(trifluoromethyl)phenyl)urea] |  |  | C* (0.20 < C ≦ 0.40) | < 250 | < 250
21 | COc1cc2ncnc(Oc3cccc(NC(=O)Nc4cc(C(C)(C)C)on4)c3)c2cc1OCCCN1CCS(=O)(=O)CC1 [Ex 26, 1-(5-tert-butyl-isoxazol-3-yl)-3-(3-{6-[3-(1,1-dioxo-thiomorpholin-4-yl)-propoxy]-7-methoxy-quinazolin-4-yloxy}-phenyl)-urea] |  | D (D > 0.40) |  | < 250 | < 250
22 | COc1cc2ncnc(Sc3cccc(NC(=O)Nc4cc(C5CCCC5)on4)c3)c2cc1OC [Ex 201, 1-(5-Cyclopentylisoxazol-3-yl)-3-(3-(6,7-dimethoxyquinazolin-4-ylthio)phenyl)urea] |  |  | C* (0.20 < C ≦ 0.40) | < 250 | < 250
23 | COc1cc2ncnc(Oc3cccc(NC(=O)Nc4cccc(C(C)(C)C)c4)c3)c2cc1OC [Ex 118, 1-(3-tert-butylphenyl)-3-(3-(6,7-dimethoxyquinazolin-4-yloxy)phenyl)urea] |  |  | C* (0.20 < C ≦ 0.40) | < 250 | < 250
24 | COc1cc2ncnc(Sc3cccc(NC(=O)Nc4cccc(C(C)(C)C)c4)c3)c2cc1OC [Ex 120, 1-(3-tert-butylphenyl)-3-(3-(6,7-dimethoxyquinazolin-4-ylthio)phenyl)urea] |  |  | C* (0.20 < C ≦ 0.40) | < 250 | < 250
25 | COc1cc2ncnc(Oc3cccc(NC(=O)Nc4cc(C(C)(C)C)on4)c3)c2cc1O[C@H]1CCN(CC(F)F)C1 [Ex 110, (S)-1-(5-tert-butylisoxazol-3-yl)-3-(3-(6-(1-(2,2-difluoroethyl)pyrrolidin-3-yloxy)-7-methoxyquinazolin-4-yloxy)phenyl)urea] |  | C (0.20 < C ≦ 0.40) |  | < 250 | < 250
26 | COc1cc2ncnc(Sc3cccc(NC(=O)Nc4cccc(C(F)(F)F)c4)c3)c2cc1OC [Ex 185, 1-(3-(6,7-dimethoxyquinazolin-4-ylthio)phenyl)-3-(3-(trifluoromethyl)phenyl)urea] |  |  | C* (0.20 < C ≦ 0.40) | < 250 | < 250
27 | COc1cc2c(Sc3cccc(NC(=O)Nc4cc(C(C)(C)C)on4)c3)ncnc2cc1OCCCN1CCC(CO)CC1 [Ex 74, 1-(5-tert-butylisoxazol-3-yl)-3-(3-(7-(3-(4-(hydroxymethyl)piperidin-1-yl)propoxy)-6-methoxyquinazolin-4-ylthio)phenyl)urea] |  | D (D > 0.40) |  | < 250 | < 250
28 | COc1cc2c(Oc3cccc(NC(=O)Nc4cc(C(C)(C)C)on4)c3)ncnc2cc1O[C@H]1CCNC1 [Ex 96, (S)-1-(5-tert-butylisoxazol-3-yl)-3-(3-(6-methoxy-7-(pyrrolidin-3-yloxy)quinazolin-4-yloxy)phenyl)urea dihydrochloride] |  | C (0.20 < C ≦ 0.40) |  | < 250 | < 250
29 | COc1cc2ncnc(Sc3cccc(NC(=O)Nc4cc(C(C)(C)C)on4)c3)c2cc1OCCN1CCOCC1 [Ex 70, 1-(5-tert-butylisoxazol-3-yl)-3-(3-(7-methoxy-6-(2-morpholinoethoxy)quinazolin-4-ylthio)phenyl)urea] |  | C (0.20 < C ≦ 0.40) |  | < 250 | < 250
